Biological target: T1, Ec YeaWX lysate (Escherichia coli YeaW/YeaX) (Escherichia coli, UniProt P0ABR7)
T1 construct: create a 5′ NdeI restriction site including the ATG start codon of yeaW; create a PstI restriction site just 3′ of the yeaX TAG stop codon; made in house; host or cells: E. coli BL21 (DE3), pET30a, IPTG induction; unpurified French-press lysate supernatant
Assay: Inhibition of d9-TMA formation from d9-carnitine in Ec YeaWX lysate (LC-MS/MS)
Assay type: biochemical
Conditions: Ec YeaWX lysate 2.0 mg/mL protein, 250 μM NADPH, 50 μM d9-carnitine chloride, 37° C. for two hours; read-out: TMA Inhibition (IC50, mol/L)
Source text: This example provides an exemplary assay for identifying and characterizing compounds that inhibit the formation of TMA from carnitine.
Escherichia coli BL21*DE3::pET30a-Ec yeaWX #1 (Ec YeaWX) strain was generated as described below. The contiguous Escherichia coli coding sequence yeaW (equivalent to uniprot ID P0ABR7.1 (YeaW) (SEQ ID NO: 2)) and yeaX (equivalent to uniprot ID P76254.1 (YeaX) (SEQ ID NO: 3)) were PCR amplified from Escherichia coli strain K-12 substr. BW25113 genomic DNA. PCR primers (YeaW_Nde_I_fwd2—SEQ ID NO: 4; YeaX_rev2—SEQ ID NO: 5) were designed to create a 5′ NdeI restriction site including the ATG start codon of yeaW and create a PstI restriction site just 3′ of the yeaX TAG stop codon.
The amplicon was restricted and cloned into the NdeI and PstI sites of the plasmid pET30a downstream of the inducible T7 promoter. A blast search of the resulting cloned amplicon DNA sequence (SEQ ID NO: 1) corresponded to nucleotide range 1884665 to 1886810 of Escherichia coli str. K-12 substr. MG1655 (NCBI Accession # NC_000913). The construct was transformed and grown in E. coli BL21 (DE3) and the recombinant yeaWX overexpressed by addition of isopropyl β-D-1-thiogalactopyranoside (IPTG).
The bacteria were grown aerobically in 50 mL LB broth (Difco #244620; 10 g/L Tryptone, 5 g/L yeast extract, 10 g/L NaCl, 50 μg/mL kanamycin), in a 500 mL Erlenmeyer flask. The cultures were inoculated from glycerol stock of BL21*DE3::pET30a-Ec yeaWX #1 strain. Strains were cultured all day at 37° C. with 250 rpm shaking. Two 300 mL Minimal M9 Medium (6 g/L Na2HPO4, 3 g/L KH2PO4, 0.5 g/L NaCl, 1 g/L NH4Cl, 0.1 mM CaCl2, 1 mM MgSO4, 0.2% Dextrose, 1 mg/L Thiamine, 50 μg/mL kanamycin), in 1 L Erlenmeyer flasks, were inoculated with 5 mL of the LB broth day culture and cultured overnight at 37° C. with 250 rpm shaking. The overnight cultures were used to inoculate twelve 1 L cultures of Minimal M9 media in 2.8 L fluted Erlenmeyer flasks to an OD 600 nm of 0.05 (typically approximately 28 mLs), which were grown at 37° C. with 250 rpm shaking until an OD600 of approximately 0.4 was reached. Expression of YeaWX was induced with 1 mM IPTG and the induced cultures were further grown overnight at 37° C. with 250 rpm shaking. The biomass was pelleted by centrifugation at 6000×g for 12 minutes at 4° C. The cell pellet was suspended in 240 mL of ice-cold 1× Phosphate Buffered Saline (Ca^2+ and Mg^2+ free). Ninety micrograms of Lysozyme (Sigma # L6876 Lot # SLBG8654V; Sigma-Aldrich Corp., St. Louis, Mo.) was added and incubated with 320 rpm shaking for 30 minutes at 4° C. Lysis was achieved via French press with a 4° C. prechilled 1″ diameter chamber at 1000 psi (high ratio; internal PSI equivalent ˜16000). The lysate was centrifuged at 6,000×g for 12 minutes at 4° C. to pellet extra debris. Glycerol was added to the centrifuged lysate supernatant at a final concentration of 15% A protein concentration of the centrifuged lysate supernatant was determined by a BCA Protein Assay Kit (Pierce #23225), typically in the 2.5 to 4.5 mg/ml range. The centrifuged Ec YeaWX lysate supernatant was aliquoted into 20 mL volumes and stored frozen at −80° C.
Ec YeaWX lysate was diluted to 2.0 mg/mL protein with 1× Dulbecco's phosphate buffered saline (DPBS) plus 15% glycerol. Nicotinamide adenine dinucleotide phosphate (NADPH) was added to 250 μM. One hundred and fifty microliters of Ec YeaWX lysate was dispensed into a deep-well plate (polypropylene, 2 mL volume, Corning Axygen catalogue # P-DW-20-C). […] The plates were agitated on a plate shaker for 1 minute. d9-carnitine chloride (1.5 μL of 5 mM) was added to all wells to reach a final d9-carnitine chloride concentration of 50 μM.
The plates were again agitated on a plate shaker for 1 minute and incubated at 37° C. for two hours. After incubation, 1.5 μL of formic acid was added to each well (final concentration=1% formic acid). The plates were agitated on a plate shaker for 1 minute and placed on ice. […]

T1 sequence (P0ABR7 whole entry): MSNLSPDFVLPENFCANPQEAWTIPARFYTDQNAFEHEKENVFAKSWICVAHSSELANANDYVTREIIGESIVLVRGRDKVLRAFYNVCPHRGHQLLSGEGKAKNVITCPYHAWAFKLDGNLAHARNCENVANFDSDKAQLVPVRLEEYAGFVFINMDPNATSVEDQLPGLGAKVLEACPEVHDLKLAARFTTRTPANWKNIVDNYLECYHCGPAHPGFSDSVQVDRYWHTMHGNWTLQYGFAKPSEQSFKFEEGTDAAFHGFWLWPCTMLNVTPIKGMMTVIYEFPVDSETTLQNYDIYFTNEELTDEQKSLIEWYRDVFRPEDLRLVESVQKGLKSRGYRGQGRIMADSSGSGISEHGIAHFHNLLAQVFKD

Going from `CCOC(=O)CN=C=S` [Compound 36, Ethyl isothiocyanatoacetate] to `S=C=Nc1ccc(Br)cc1` [Compound 20, 4-Bromophenyl isothiocyanate], the IC50 falls from 30 µM to 4.72 µM (6.4-fold). The second is the more potent here.

First: S=C=NC(c1ccccc1)c1ccccc1 [Compound 38, Benzhydryl isothiocyanate]
Second: S=C=NCC1CCCCC1 [Compound 8, Cyclohexylmethyl isothiocyanate]
The IC50 of the first is 12-fold lower: 3.05 µM for the first, 38.1 µM for the second. The first is the more potent here.

Compared with `CCCCCCN=C=S` [Compound 17, Hexyl isothiocyanate], `S=C=N[C@@H]1C[C@H]2CC[C@@H]1C2` (relative stereo) [Compound 29, exo-2-Norbornyl-isothiocyanate] is 2-fold lower in IC50: 43.5 µM for the first, 21.6 µM for the second.

Compared with `CC(C)(C)OC(=O)NCCCCN=C=S` [Compound 22, N-Boc-4-isothiocyanatobutylamine], `S=C=NCCCN1CCOCC1` [Compound 24, 3-(4-Morpholino)propyl isothiocyanate] is 3.9-fold higher in IC50: 17.7 µM for the first, 68.5 µM for the second. The first is the more potent here.

Going from `CC(=O)O[C@H]1[C@H](OC(C)=O)[C@@H](N=C=S)OC[C@H]1OC(C)=O` [Compound 39, 2,3,4-Tri-O-acetyl-α-D-arabinopyranosyl isothiocyanate] to `S=C=Nc1ccc(Cl)cc1` [Compound 27, 4-Chlorophenyl isothiocyanate], the IC50 falls from 50.1 µM to 4.57 µM (11-fold).

First: CSc1ccc(N=C=S)cc1 [Compound 4, 4-(Methylthio)phenyl isothiocyanate]
Second: CC(C)CN=C=S [Compound 12, Isobutyl isothiocyanate]
The IC50 of the first is 6.9-fold lower: 10.8 µM for the first, 74.5 µM for the second.

Compared with `COc1ccc(C)cc1N=C=S` [Compound 1, 2-Methoxy-5-methylphenyl isothiocyanate], `C[C@H](N=C=S)c1ccccc1` [Compound 26, (S)-(+)-alpha-Methylbenzyl isothiocyanate] is 8.4-fold lower in IC50: 61.6 µM for the first, 7.34 µM for the second.

First: S=C=NCCc1ccc(Cl)cc1 [Compound 9, 2-(4-Chlorophenethyl) isothiocyanate]
Second: CN(C)CCCN=C=S [Compound 41, 3-isothiocyanato-N,N-dimethyl-1-Propanamine]
The IC50 of the first is 25-fold lower: 12.7 µM for the first, 320 µM for the second.

Going from `O=C(N=C=S)c1ccccc1` [Compound 21, Benzoyl isothiocyanate] to `CC(C)CCN=C=S` [Compound 16, 1-isothiocyanato-3-methylbutane], the IC50 falls from 138 µM to 75.9 µM (1.8-fold).

Going from `CCN(CC)CCCN=C=S` [Compound 7, 3-(Diethylamino)propyl isothiocyanate] to `COc1ccc(OC)c(N=C=S)c1` [Compound 33, 2,5-Dimethoxyphenyl isothiocyanate], the IC50 falls from 146 µM to 47.7 µM (3.1-fold). The second is the more potent here.

First: CC(C)(C)OC(=O)Nc1ccc(N=C=S)cc1 [Compound 23, N-Boc-4-isothiocyanatoaniline]
Second: COc1cccc(N=C=S)c1 [Compound 34, 3-Methoxyphenyl isothiocyanate]
The IC50 of the first is 1.6-fold higher: 15.7 µM for the first, 9.59 µM for the second. The second is the more potent here.

Compared with `S=C=NC1CCCCC1` [Compound 30, Cyclohexyl isothiocyanate], `CCc1ccc(N=C=S)cc1` [Compound 31, 4-Ethylphenyl isothiocyanate] is 2.2-fold lower in IC50: 38.8 µM for the first, 17.3 µM for the second. The second is the more potent here.

Going from Methyl isothiocyanate [Compound 14] to `CC(C)(C)N=C=S` [Compound 2, tert-Butyl isothiocyanate], the IC50 rises from 149 µM to over 1000 µM. The first is the more potent here.

First: S=C=NCc1ccccc1 [Compound 5, Benzyl isothiocyanate]
Second: CCN(CC)CCN=C=S [Compound 40, Ethanamine, N,N-diethyl-2-isothiocyanato]
The IC50 of the first is 38-fold lower: 8.37 µM for the first, 320 µM for the second. The first is the more potent here.

Compared with `COc1ccccc1N=C=S` [Compound 32, 2-Methoxyphenyl isothiocyanate], `COc1ccc(N=C=S)cc1` [Compound 28, 4-Methoxyphenyl isothiocyanate] is 5.8-fold lower in IC50: 33.3 µM for the first, 5.76 µM for the second.

First: CN(C)CCN=C=S [Compound 42, 2-Isothiocyanato-N,N-dimethylethanamine]
Second: CCCCN=C=S [Compound 13, Butyl isothiocyanate]
The IC50 of the first is 2.6-fold higher: 164 µM for the first, 63.6 µM for the second. The second is the more potent here.

First: S=C=NCCN1CCOCC1 [Compound 25, 2-(4-Morpholino)ethyl isothiocyanate]
Second: CC(C)N=C=S [Compound 15, Isopropyl isothiocyanate]
The IC50 of the first is 2.9-fold lower: 69 µM for the first, 200 µM for the second. The first is the more potent here.

First: CCCCCN=C=S [Compound 6, 1-pentyl isothiocyanate]
Second: CCC(C)N=C=S (stereo not drawn) [Compound 10, sec-butyl isothiocyanate]
The IC50 of the first is 4.5-fold lower: 32.2 µM for the first, 146 µM for the second.

First: S=C=NCCN1CCCCC1 [Compound 35, 2-Piperidinoethyl isothiocyanate]
Second: S=C=Nc1ccccc1 [Compound 18, Phenyl isothiocyanate]
The IC50 of the first is 16-fold higher: 104 µM for the first, 6.45 µM for the second. The second is the more potent here.

Compared with Ethyl isothiocyanate [Compound 11], `Cc1cccc(N=C=S)c1` [Compound 3, m-Tolyl isothiocyanate] is 5.7-fold lower in IC50: 82.2 µM for the first, 14.5 µM for the second.

Compared with `S=C=Nc1cccc2ccccc12` [Compound 19, 1-Naphthyl isothiocyanate], `CCCCCC12CCC(C(=O)Oc3ccc(N=C=S)cc3)(CC1)CC2` [Compound 37, 4-Isothiocyanatophenyl 4-pentylbicyclo[2.2.2] octane-1-carboxylate] is higher in IC50: 12.5 µM for the first, over 1000 µM for the second. The first is the more potent here.

Reference: patent publication US10786479B2, “Methods for inhibiting conversion of carnitine to trimethylamine (TMA)” (The Procter & Gamble Company, priority 2015, dated 2020)
